# Experimental data reported in US5270334A, “4-methoxy-5-methyl-pyran-3-ol natural products and derivatives thereof” (E. R. Squibb & Sons, Inc., priority 1992, dated 1993).
# Read-outs that look alike come from different tables or passages of the source.
# Legend:
# [1] = system: cytochrome P450 enzymes, such as lanosterol demethylase; experiment: inhibition of cytochrome P450 enzymes (general statement); format: biochemical; settings: in words
# Candida stellatoidea = experiment: Anticandidal activity of lanomycin, agar dilution method (Table 5); format: cell-based; settings: Candida albicans, SC2211; Candida stellatoidea SC 2211; 10^4 cfu
# Method: (§1) MICs were determined by the agar dilution method using a medium composed of tryptone (5 g), malt extract (3 g), glucose (10 g) and yeast extract (3 g) in 1 L distiled water; 10^4 cfu of the test organism was applied to the agar.
# Candida albicans [2] = experiment: as above; format: cell-based; settings: for MIC: 10^4 cfu
# Method: as §1
# Candida krusei [3] = experiment: as above; format: cell-based; settings: for MIC: Pichia kudriavzevii, 10^4 cfu
# Method: as §1
# Candida pseudotropicalis = experiment: as above; format: cell-based; settings: Kluyveromyces marxianus, SC11241; Candida pseudotropicalis SC 11241; 10^4 cfu
# Method: as §1
# Candida glabrata [4] = experiment: as above; format: cell-based; settings: for MIC: Nakaseomyces glabratus, 10^4 cfu
# Method: as §1
# Candida tropicalis [5] = experiment: as above; format: cell-based; settings: 10^4 cfu
# Method: as §1
# yeasts and fungi = experiment: activity against a variety of yeasts and fungi (general statement); format: cell-based; settings: in words
# Candida parakrusei = experiment: agar diffusion assay with yeasts (zone of inhibition); format: cell-based
# Method: (§2) In addition to M.I.C. determinations, the following methodology was used to determine the activity of the compounds of this invention against yeasts. Fresh F-4 broth cultures of the test organisms were made from frozen vials. The broth cultures were incubated at 30° C. for 18 to 24 hours at which time the average cell count was assumed to be 5×10^7 CFU per ml. They were then used to inoculate flasks containing 300 ml of F-4 agar that had been melted and cooled to 48° C. in a temperature-controlled water bath. The inoculum consisted of 1.7 ml to give an inoculum level of about 2.8×10^5 CFU per ml. 25 ml of the inoculated agar was then poured into 150×15mm sterile Petri dishes and allowed to harden.
# (§3) The medium was sterilized at 121° C. for 15 minutes at 15 psi.
# (§4) F-4 agar has the same composition as the broth but with the addition of 15 g agar per liter.
# (§5) Cellulose discs, 6.35 mm diameter, from Schleicher & Schuell, Inc., Keene, N.H., were charged with 10 μl of a solution composed of 1 mg/ml of lanomycin or scopularin in methanol. The discs were then placed on the surface of the inoculated agar plates of the test yeast strains, and the plates incubated at 30° C. for 18 to 24 hours. At that time, the diameter of the zones of inhibition was measured.
# Cryptococcus neoformis = experiment: as above; format: cell-based
# Method: as §2, §3, §4, §5
# Candida albicans [6] = experiment: as above; format: cell-based
# Method: as §2, §3, §4, §5
# Candida krusei [7] = experiment: as above; format: cell-based; settings: Pichia kudriavzevii, SC2969; Candida krusei SC 2969; disc with 10 μl of 1 mg/ml; read-out: Zone diameter
# Method: as §2, §3, §4, §5
# Candida quillermondi = experiment: as above; format: cell-based
# Method: as §2, §3, §4, §5
# Candida glabrata [8] = experiment: as above; format: cell-based; settings: Nakaseomyces glabratus, SC9342; Candida glabrata SC 9342; disc with 10 μl of 1 mg/ml; read-out: Zone diameter
# Method: as §2, §3, §4, §5
# Candida tropicalis [9] = experiment: as above; format: cell-based
# Method: as §2, §3, §4, §5
# Saccaromyces cerevisiae = experiment: as above; format: cell-based; settings: read-out: Zone diameter
# Method: as §2, §3, §4, §5
# [10] = biological target: T1, lanosterol demethylase of Candida albicans (Candida albicans, UniProt P10613); experiment: inhibition of lanosterol demethylase, radiolabeled metabolic assay (14C-acetate, lanosterol accumulation); format: cell-based; settings: Candida albicans SC5314, 14C-acetate, 30°
# T1 construct: 14C-acetate sterol labelling, TLC
# T1 sequence (P10613 whole entry): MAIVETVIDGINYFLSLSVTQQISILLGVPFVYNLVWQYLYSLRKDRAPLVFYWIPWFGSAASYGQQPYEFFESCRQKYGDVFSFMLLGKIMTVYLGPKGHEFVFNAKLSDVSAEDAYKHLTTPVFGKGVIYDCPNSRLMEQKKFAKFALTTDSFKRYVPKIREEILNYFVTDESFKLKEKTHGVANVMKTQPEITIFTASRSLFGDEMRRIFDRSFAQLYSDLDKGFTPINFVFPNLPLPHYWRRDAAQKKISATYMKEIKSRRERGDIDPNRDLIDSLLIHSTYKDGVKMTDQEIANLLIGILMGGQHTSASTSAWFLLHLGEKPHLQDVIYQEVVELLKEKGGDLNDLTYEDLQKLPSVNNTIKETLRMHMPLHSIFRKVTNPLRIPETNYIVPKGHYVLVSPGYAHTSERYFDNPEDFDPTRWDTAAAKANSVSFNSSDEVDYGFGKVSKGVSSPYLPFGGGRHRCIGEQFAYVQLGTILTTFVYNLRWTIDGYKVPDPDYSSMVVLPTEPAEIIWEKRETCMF
# Method: The inhibition of lanosterol demethylase was determined by two methods: the spectrophotometric carbon monoxide binding assay of Omura and Sato (J. Biol. Chem. 239:2370-2378, 1964) and by a radiolabeled metabolic assay.
# The ability of scopularin and its alcohol to inhibit the lanosterol demethylase of Candida albicans can also be visualized by a metabolic assay. Candida albicans, SC5314, was grown overnight at 30° with shaking in the same medium as that used above. Cells were harvested by centrifugation and resuspended in water to give an optical density of 0.3 at 660 nm. 750 μl of this cell suspension, 300 μl of a medium containing 0.35 g Difco yeast nitrogen base without amino acids, 1 g glucose and distilled water to 10 ml, 100 μl of test material and distilled water were combined to give a final volume of 1.425 ml. This was incubated for 15 minutes at 30° C. with shaking, then 3 μCi ^14 C-acetate was added and continued to incubate for 1 hour. Cells were harvested by centrifugation and extracted with 2×0.5 ml methanol; centrifuged, decanted supernate and repeated the extraction with […] methanol-benzene (1:1). Centrifuged, decanted; combined supernates, dried and resuspended in 100 μl chloroform-methanol (1:1). The aliquots were spotted onto silica gel 60 (Merck) plates and developed chromatographically in a solvent containing dichloromethane-acetone (60:1). […]
# [11] = Candida, SC2966, read-out: Zone diameter
# [12] = SC2210, Candida quillermondi SC 2210, disc with 10 μl of 1 mg/ml, read-out: Zone diameter
# [13] = Saccaromyces cerevisiae SGY 379, disc with 10 μl of 1 mg/ml
smiles,measurement,setting,value
C/C=C/C=C/C=C(\C)[C@H]1OC[C@@H](C)[C@@H](OC)[C@@H]1OC(=O)CN (relative stereo) [Lanomycin],"inhibition of cytochrome P450 enzymes, such as lanosterol demethylase",[1],inhibit
same,MIC,Candida stellatoidea,50 µg/mL
same,MIC,"Candida albicans [2]; SC5314, Candida albicans SC 5314",> 100 µg/mL
same,MIC,"Candida albicans [2]; SC9177, Candida albicans SC 9177",100 µg/mL
same,MIC,"Candida albicans [2]; SC9721, Candida albicans SC 9721",100 µg/mL
same,MIC,"Candida albicans [2]; SC10102, Candida albicans SC 10102",> 100 µg/mL
same,MIC,"Candida albicans [2]; SC10580, Candida albicans SC 10580",> 100 µg/mL
same,MIC,"Candida albicans [2]; SC10584, Candida albicans SC 10584",50 µg/mL
same,MIC,"Candida albicans [2]; SC10585, Candida albicans SC 10585",100 µg/mL
same,MIC,"Candida albicans [2]; SC11422, Candida albicans SC 11422",100 µg/mL
same,MIC,"Candida albicans [2]; SC12734, Candida albicans SC 12734",> 100 µg/mL
same,MIC,"Candida albicans [2]; SC14021, Candida albicans SC 14021",> 100 µg/mL
same,activity against the C. albicans species tested,"Candida albicans [2]; in words, Table 5",active
same,MIC,"Candida krusei [3]; SC2967, Candida krusei SC 2967",6.3 µg/mL
same,MIC,"Candida krusei [3]; SC2968, Candida krusei SC 2968",12.5 µg/mL
same,MIC,"Candida krusei [3]; SC2969, Candida krusei SC 2969",25 µg/mL
same,activity against certain strains of C. krusei,"Candida krusei [3]; in words, Table 5",good activity
same,MIC,Candida pseudotropicalis,50 µg/mL
same,MIC,"Candida glabrata [4]; SC9342, Candida glabrata SC 9342",0.8 µg/mL
same,MIC,"Candida glabrata [4]; SC11267, Candida glabrata SC 11267",25 µg/mL
same,activity against certain strains of C. glabrata,"Candida glabrata [4]; in words, Table 5",good activity
same,MIC,"Candida tropicalis [5]; SC2963, Candida tropicalis SC 2963",25 µg/mL
same,MIC,"Candida tropicalis [5]; SC8159, Candida tropicalis SC 8159",> 100 µg/mL
same,MIC,"Candida tropicalis [5]; SC9861, Candida tropicalis SC 9861",100 µg/mL
same,MIC,"Candida tropicalis [5]; SC10597, Candida tropicalis SC 10597",100 µg/mL
same,activity against a variety of yeasts and fungi,yeasts and fungi,has activity
same,zone of inhibition at 1000 µg/mL,"Candida parakrusei; Candida, SC2621, read-out: Zone diameter",27 mm
same,zone of inhibition at 1000 µg/mL,Candida parakrusei; [11],12 mm
same,zone of inhibition at 1000 µg/mL,"Cryptococcus neoformis; Cryptococcus, SC5817, read-out: Zone diameter",21 mm
same,zone of inhibition at 1000 µg/mL,"Candida albicans [6]; SC4314, Candida albicans SC 4314, disc with 10 μl of 1 mg/ml, read-out: Zone diameter",32 mm
same,zone of inhibition at 1000 µg/mL,Candida krusei [7],12 mm
same,zone of inhibition at 1000 µg/mL,"Candida quillermondi; Candida, SC2996, read-out: Zone diameter",29 mm
same,zone of inhibition at 1000 µg/mL,Candida quillermondi; [12],30 mm
same,zone of inhibition at 1000 µg/mL,Candida glabrata [8],33 mm
same,zone of inhibition at 1000 µg/mL,"Candida tropicalis [9]; Candida tropicalis, SC2963, read-out: Zone diameter",28 mm
same,zone of inhibition at 1000 µg/mL,"Candida tropicalis [9]; Candida tropicalis, SC8159, read-out: Zone diameter",29 mm
same,zone of inhibition at 1000 µg/mL,"Saccaromyces cerevisiae; Saccaromyces cerevisiae SGY 195, disc with 10 μl of 1 mg/ml",25 mm
same,zone of inhibition at 1000 µg/mL,Saccaromyces cerevisiae; [13],30 mm
"CCC/C=C/C=C/C=C(\C)[C@H]1OC[C@@H](C)[C@@H](OC)[C@@H]1OC(=O)CN (relative stereo) [Scopularin, (2α, 3β, 4α, 5α)-Tetrahydro-4-methoxy-5-methyl-2-(1-methyl-1,3,5-nonatrienyl)-2H-pyran-3-ol, aminoacetate ester]","inhibition of cytochrome P450 enzymes, such as lanosterol demethylase",[1],inhibit
same,"concentration causing accumulation of lanosterol, consistent with inhibition of lanosterol demethylase",[10],6.7×10^-7
same,activity against a variety of yeasts and fungi,yeasts and fungi,has activity
same,zone of inhibition at 1000 µg/mL,Candida parakrusei; [11],20 mm
same,zone of inhibition at 1000 µg/mL,"Candida parakrusei; SC2621, Candida parakrusei SC 2621, disc with 10 μl of 1 mg/ml, read-out: Zone diameter",31 mm
same,zone of inhibition at 1000 µg/mL,"Cryptococcus neoformis; SC5817, Cryptococcus neoformis SC 5817, disc with 10 μl of 1 mg/ml, read-out: Zone diameter",25 mm
same,zone of inhibition at 1000 µg/mL,"Candida albicans [6]; Candida albicans, SC4314, read-out: Zone diameter",37 mm
same,zone of inhibition at 1000 µg/mL,Candida krusei [7],20 mm
same,zone of inhibition at 1000 µg/mL,Candida quillermondi; [12],31 mm
same,zone of inhibition at 1000 µg/mL,"Candida quillermondi; SC2996, Candida quillermondi SC 2996, disc with 10 μl of 1 mg/ml, read-out: Zone diameter",32 mm
same,zone of inhibition at 1000 µg/mL,Candida glabrata [8],36 mm
same,zone of inhibition at 1000 µg/mL,"Candida tropicalis [9]; SC2963, Candida tropicalis SC 2963, disc with 10 μl of 1 mg/ml, read-out: Zone diameter",32 mm
same,zone of inhibition at 1000 µg/mL,"Candida tropicalis [9]; SC8159, Candida tropicalis SC 8159, disc with 10 μl of 1 mg/ml, read-out: Zone diameter",30 mm
same,zone of inhibition at 1000 µg/mL,Saccaromyces cerevisiae; [13],30 mm
same,zone of inhibition at 1000 µg/mL,Saccaromyces cerevisiae,23 mm
